The record followed here is ChEMBL document CHEMBL5376000, “One-Pot Synthesis of Cereblon Proteolysis Targeting Chimeras via Photoinduced C(sp2)-C(sp3) Cross Coupling and Amide Formation for Proteolysis Targeting Chimera Library Synthesis” (J Med Chem, 2023).

A short description of data set [1]: Aqueous solubility of the compound at 125 ug/ml measured after 24 hrs at pH 4.5 by LC-UV analysis. The format is physicochemical. To be noted: for solubility: buffer, pH 4.5, 24 h, dose 125 µg/ml; for solubility at 24 h: aqueous medium, pH 4.5, dose 125 µg/ml.
The nature of data set [2]: Aqueous solubility of the compound at 125 ug/ml measured after 24 hrs at pH 6.8 by LC-UV analysis. The format is physicochemical. To be noted: for solubility: buffer, pH 6.8, 24 h, dose 125 µg/ml; for solubility at 24 h: aqueous medium, pH 6.8, dose 125 µg/ml.
Data set [3] can be described thus: Metabolic stability of the compound in human liver microsomes at 1 umol/L by HPLC-MS/MS analysis. The format is ADME, Microsome. To be noted: dose 1 µmol/L, read-out: Stability.
Data set [4] can be described thus: Metabolic stability of the compound in rat liver microsomes at 1 umol/L by HPLC-MS/MS analysis. The format is ADME, Microsome. The conditions noted are these: dose 1 µmol/L, read-out: Stability.
A short description of data set [5]: Metabolic stability of the compound in mouse liver microsomes at 1 umol/L by HPLC-MS/MS analysis. In kind it is ADME, Microsome. To be noted: dose 1 µmol/L, read-out: Stability.
Data set [6] is described as follows: Stability of the compound in 1:1 acetonitrile/water at 125 ug/ml measured after 24 hrs by LC-UV analysis. In kind it is physicochemical. To be noted: buffer, at 125 µg/mL.

Values after ≈ are worked out from the molar mass of the structure shown.

For the molecule `Cc1sc2c(c1C)C(c1ccc(Cl)cc1)=N[C@@H](CC(=O)NCCCCCN1CCC(c3ccc4c(c3)CN(C3CCC(=O)NC3=O)C4=O)CC1)c1nnc(C)n1-2` (stereo partly specified), the solubility in data set [1] was greater than 191 µM; in data set [2] it was greater than 178 µM. Besides, the results for the remaining at 1 µM in data set [3], in data set [4] and in data set [5] were 54%, less than 23% and 27%, respectively.

On to `Cc1sc2c(c1C)C(c1ccc(Cl)cc1)=N[C@@H](CC(=O)N1CCC(c3ccc4c(c3)CN(C3CCC(=O)NC3=O)C4=O)CC1)c1nnc(C)n1-2` (stereo partly specified), for which the solubility at 24 h in data set [1] worked out at 36 µg/mL (≈ 50.7 µM); in data set [2], 26 µg/mL (≈ 36.6 µM). Besides, the remaining at 1 µM in data set [3] was 67%; in data set [4], 34%; in data set [5] it was 51%.

On to `Cc1sc2c(c1C)C(c1ccc(Cl)cc1)=N[C@@H](CC(=O)NCCCCCCNc1ccc(Cc3ccc4c(c3)CN(C3CCC(=O)NC3=O)C4=O)cc1)c1nnc(C)n1-2` (stereo partly specified), for which the solubility at 24 h in data set [1] was determined as 3 µg/mL (≈ 3.61 µM). In addition, in data set [2], the solubility was less than 1 µM. For the same molecule, the results for the remaining at 1 µM in data set [3], in data set [4] and in data set [5] were greater than 88%, 66% and 83%, respectively.

Regarding `Cc1sc2c(c1C)C(c1ccc(Cl)cc1)=N[C@@H](CC(=O)NCCCCCNc1ccc(Cc3ccc4c(c3)CN(C3CCC(=O)NC3=O)C4=O)cc1)c1nnc(C)n1-2` (stereo partly specified), the concentration in solution in data set [1] (solubility at 24 h) came to 6 µg/mL (≈ 7.34 µM). In data set [2], this molecule showed a solubility of less than 1 µM. Besides, the remaining at 1 µM in data set [3] was greater than 88%; in data set [4] it was 58%; in data set [5], 76%.

As for `Cc1sc2c(c1C)C(c1ccc(Cl)cc1)=N[C@@H](CC(=O)Nc1ccc(Cc3ccc4c(c3)CN(C3CCC(=O)NC3=O)C4=O)cc1)c1nnc(C)n1-2` (stereo partly specified), the solubility in data set [1] and in data set [2] was less than 1 µM each time. In addition, the remaining at 1 µM was determined as 37% in data set [3], 64% in data set [4] and 25% in data set [5].

Take `Cc1sc2c(c1C)C(c1ccc(Cl)cc1)=N[C@@H](CC(=O)NCCCNc1ccc(Cc3ccc4c(c3)CN(C3CCC(=O)NC3=O)C4=O)cc1)c1nnc(C)n1-2` (stereo partly specified): the solubility at 24 h in data set [1] came out at 14 µg/mL (≈ 17.7 µM); in data set [2], 4 µg/mL (≈ 5.07 µM). For the same molecule, the results for the remaining at 1 µM in data set [3], in data set [4] and in data set [5] were greater than 88%, 48% and 70%, respectively.

With `Cc1sc2c(c1C)C(c1ccc(Cl)cc1)=N[C@@H](CC(=O)NCCCN1CCC(c3ccc4c(c3)CN(C3CCC(=O)NC3=O)C4=O)CC1)c1nnc(C)n1-2` (stereo partly specified), the solubility in data set [1] was greater than 185 µM; in data set [2], greater than 175 µM. Moreover, the remaining at 1 µM was 34% in data set [3], less than 23% in data set [4] and 27% in data set [5].

The molecule `Cc1sc2c(c1C)C(c1ccc(Cl)cc1)=N[C@@H](CC(=O)NCCN1CCC3(CCC(c4ccc5c(c4)CN(C4CCC(=O)NC4=O)C5=O)CC3)CC1)c1nnc(C)n1-2` (stereo partly specified) had a solubility in data set [1] greater than 190 µM. The molecule also came in with a solubility at 24 h in data set [2] of 161 µg/mL (≈ 196 µM). In addition, the remaining at 1 µM in data set [3] amounted to 56%; in data set [4], 33%; in data set [5], 44%.

As to `Cc1sc2c(c1C)C(c1ccc(Cl)cc1)=N[C@@H](CC(=O)NCCNc1ccc(Cc3ccc4c(c3)CN(C3CCC(=O)NC3=O)C4=O)cc1)c1nnc(C)n1-2` (stereo partly specified), the solubility at 24 h in data set [1] came to 3 µg/mL (≈ 3.87 µM); in data set [2], 1 µg/mL (≈ 1.29 µM). Moreover, the remaining at 1 µM turned out to be 86% in data set [3], 42% in data set [4] and 55% in data set [5].

As to `Cc1sc2c(c1C)C(c1ccc(Cl)cc1)=N[C@@H](CC(=O)NCCN1CC(N3CCC(c4ccc5c(c4)CN(C4CCC(=O)NC4=O)C5=O)CC3)C1)c1nnc(C)n1-2` (stereo partly specified), the solubility in data set [1] is greater than 188 µM; in data set [2], greater than 174 µM. For the same molecule, the values for the remaining at 1 µM in data set [3], in data set [4] and in data set [5] were 41%, less than 23% and 25%, respectively. Also, the Stability entry in data set [6] is listed as “Unstable”.

Take `Cc1sc2c(c1C)C(c1ccc(Cl)cc1)=N[C@@H](CC(=O)NCCCCCCN1CCC(c3ccc4c(c3)CN(C3CCC(=O)NC3=O)C4=O)CC1)c1nnc(C)n1-2` (stereo partly specified): the solubility was greater than 197 µM in data set [1] and greater than 182 µM in data set [2]. Besides, the results for the remaining at 1 µM in data set [3], in data set [4] and in data set [5] were 53%, less than 23% and less than 24%, respectively.

Consider `Cc1sc2c(c1C)C(c1ccc(Cl)cc1)=N[C@@H](CC(=O)NCCCCN1CCC(c3ccc4c(c3)CN(C3CCC(=O)NC3=O)C4=O)CC1)c1nnc(C)n1-2` (stereo partly specified), for which the solubility in data set [1] was greater than 189 µM; in data set [2] it was greater than 175 µM. Besides, the remaining at 1 µM in data set [3] is 66%; in data set [4], less than 23%; in data set [5] it was less than 24%.

`Cc1sc2c(c1C)C(c1ccc(Cl)cc1)=N[C@@H](CC(=O)NCCCCNc1ccc(Cc3ccc4c(c3)CN(C3CCC(=O)NC3=O)C4=O)cc1)c1nnc(C)n1-2` (stereo partly specified) registered a solubility at 24 h in data set [1] of 4 µg/mL (≈ 4.98 µM). The solubility in data set [2] was less than 1 µM. Besides, the remaining at 1 µM in data set [3] was greater than 88%; in data set [4], 62%; in data set [5], 77%.

As for `Cc1sc2c(c1C)C(c1ccc(Cl)cc1)=N[C@@H](CC(=O)NCCN1CC3(CCC(c4ccc5c(c4)CN(C4CCC(=O)NC4=O)C5=O)CC3)C1)c1nnc(C)n1-2` (stereo partly specified), the solubility in data set [1] was greater than 190 µM. The solubility at 24 h in data set [2] is 101 µg/mL (≈ 127 µM). Besides, the remaining at 1 µM in data set [3] was 60%; in data set [4], less than 23%; in data set [5], 33%.

In the case of `Cc1sc2c(c1C)C(c1ccc(Cl)cc1)=N[C@@H](CC(=O)NCCN1CCC(c3ccc4c(c3)CN(C3CCC(=O)NC3=O)C4=O)CC1)c1nnc(C)n1-2` (stereo partly specified), the solubility in data set [1] is greater than 177 µM; in data set [2], greater than 162 µM. Besides, the remaining at 1 µM turned out to be 68% in data set [3], 40% in data set [4] and 25% in data set [5].
